Data set [1] can be described thus: Metabolic profiling of 14C-3APS in mice. Type of data set: in vivo, male CD-1 mice. The note with it: Mouse plasma. How it is done:
(§1) Three single dose studies were conducted in mice, rats and dogs to determine the metabolic profile of ^14C-3APS in plasma, urine and feces. In the first study, twenty-seven male CD-1 mice received a single dose of 100 mg/kg (20 μCi/animal) of ^14C-3APS by oral gavage. Blood samples (3 animals/time point) were collected for 12 hr following drug administration while urine and feces (3 animals/time point) samples were collected for 96 hr. In the second study, eight male Sprague-Dawley rats received a single dose of 100 mg/kg (50 μCi/animal) of ^14C-3APS by oral gavage while in the third study, three male Beagle dogs received a single dose of 100 mg/kg (30 μCi/kg) of ^14C-3APS by oral gavage. For the rat and dog studies, blood samples were collected for 24 hr following drug administration while urine and feces samples were collected for 72 hr. All samples were analyzed for total radioactivity using appropriate sample preparation procedures and scintillation counting. Plasma and urine samples were also analyzed for 3APS and 3APS metabolites (2-carboxyethanesulfonic acid, 3-hydroxy-1-propanesulfonic acid and 3-acetylamino-1-propanesulfonic acid) concentrations using qualified HPLC and MS/MS methods.

Data set [2] is described as follows: Metabolic profiling of 14C-3APS in rats. Type of data set: in vivo, male Sprague-Dawley rats. How it is done: as §1
The mark [3] stands for this setting: analyte after single oral 100 mg/kg 14C-3APS.
The mark [4] stands for this setting: male, CD-1, mouse, plasma, po, 100 mg/kg, analyte after single oral 100 mg/kg 14C-3APS.
[5] abbreviates: Rat plasma, analyte after single oral 100 mg/kg 14C-3APS.
Where [6] appears, read: male, Sprague-Dawley, rat, plasma, po, 100 mg/kg, Rat plasma, analyte after single oral 100 mg/kg 14C-3APS.

Consider `NCCCS(=O)(=O)O` [Compound 3APS, 3-amino-1-propanesulfonic acid], for which the AUC0-τ in data set [1] (setting [3]) amounted to 15.5 µmol·min/mL; in data set [2] (setting [5]) it was 26.7 µmol·min/mL. Moreover, the “AUC∞” value was 15.7 µmol·min/mL in data set [1] (setting [3]) and 27.6 µmol·min/mL in data set [2] (setting [5]). Also, the Tmax in data set [1] (setting [4]) and in data set [2] (setting [6]) was around 30 min throughout. For the same compound, the figures for the half-life in data set [1] (setting [4]) and in data set [2] (setting [6]) were around 120 min and around 360 min, respectively. In addition, the highest concentration (Cmax) in data set [1] (male, CD-1, analyte (3APS or metabolite) after single oral 100 mg/kg 14C-3APS) came to 97.7 µM; in data set [2] (male, Sprague-Dawley, Rat plasma, analyte (3APS or metabolite) after single oral 100 mg/kg 14C-3APS), 218 µM. This compound also showed a T1/2 in data set [2] (Rat plasma, analyte after single oral 100 mg/kg 14C-3APS, 100 mg/kg) of 6.43 h. Further, in data set [2] (Rat, amount excreted, single oral 100 mg/kg 14C-3APS), the “% of Total Radioactivity, Urine” value is given as 59%.

As usually defined, the Tmax is the time at which the peak concentration occurs. Broadly, the half-life is the time in which the quantity being followed falls by half. Higher therefore signals slow decline. As usually defined, the Cmax is the highest concentration seen after dosing.

For the origin of these results see patent publication US11020360B2, “Methods, compounds, compositions and vehicles for delivering 3-amino-1-propanesulfonic acid” (Bellus Health, Inc., priority 2006, dated 2021).
